Test results published in ChEMBL document CHEMBL1201862, “PubChem BioAssay data set” (2004).
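All cell lines were grown in 96-well plates and treated with compound for 48 hours. GI50 marks 50% less growth.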 Active and inactive are the calls of the source. No stated cut-off is given here; in the data, active = GI50 up to about 1.1 µM and inactive = higher.

Key:
Assay in all cases: NCI tumour cell line growth inhibition, 48 h
[1] = tested on: 786-0
[2] = tested on: ACHN
[3] = tested on: BT-549
[4] = tested on: CAKI-1
[5] = tested on: CCRF-CEM
[6] = tested on: COLO 205
[7] = tested on: DU-145
[8] = tested on: EKVX
[9] = tested on: HCT-116
[10] = tested on: HCT-15
[11] = tested on: HL-60
[12] = tested on: HOP-62
[13] = tested on: HOP-92
[14] = tested on: HT-29
[15] = tested on: Hs-578T
[16] = tested on: IGROV-1
[17] = tested on: K562
[18] = tested on: KM12
[19] = tested on: LOX IMVI
[20] = tested on: M14
[21] = tested on: MCF7
[22] = tested on: MDA-MB-435
[23] = tested on: MDA-N
[24] = tested on: MOLT-4
[25] = tested on: Malme-3M
[26] = tested on: NCI-H226
[27] = tested on: NCI-H23
[28] = tested on: NCI-H522
[29] = tested on: NCI/ADR-RES
[30] = tested on: OVCAR-3
[31] = tested on: OVCAR-4
[32] = tested on: OVCAR-5
[33] = tested on: OVCAR-8
[34] = tested on: PC-3
[35] = tested on: RPMI-8226
[36] = tested on: RXF 393
[37] = tested on: SF-268
[38] = tested on: SF-295
[39] = tested on: SF-539
[40] = tested on: SK-MEL-28
[41] = tested on: SK-MEL-2
[42] = tested on: SK-MEL-5
[43] = tested on: SK-OV-3
[44] = tested on: SN12C
[45] = tested on: SNB-19
[46] = tested on: SNB-75
[47] = tested on: SR
[48] = tested on: SW-620
[49] = tested on: T47D
[50] = tested on: UACC-257
[51] = tested on: UACC-62
[52] = tested on: UO-31
[53] = tested on: A498
[54] = tested on: A549
[55] = tested on: HCC 2998
[56] = tested on: NCI-H460
[57] = tested on: TK-10
[58] = tested on: U-251

SMILES: Cc1ccc([N+](=O)[O-])cc1S(=O)(=O)Nc1ccc(C2=NN(S(=O)(=O)c3cc([N+](=O)[O-])ccc3C)C(c3ccco3)C2)cc1 (centres undefined)
- GI50 [1]: 48.8 µM (inactive)
- GI50 [2]: 36.6 µM (inactive)
- GI50 [3]: 25.8 µM (inactive)
- GI50 [4]: 45.8 µM (inactive)
- GI50 [5]: 27.6 µM (inactive)
- GI50 [6]: 39.4 µM (inactive)
- GI50 [7]: 45 µM (inactive)
- GI50 [8]: 29.2 µM (inactive)
- GI50 [9]: 31.9 µM (inactive)
- GI50 [10]: 41.7 µM
- GI50 [11]: 38.8 µM (inactive)
- GI50 [12]: 45.2 µM (inactive)
- GI50 [13]: 16.7 µM (inactive)
- GI50 [14]: 54 µM (inactive)
- GI50 [15]: > 100 µM (inactive)
- GI50 [16]: 29.6 µM (inactive)
- GI50 [17]: 31 µM (inactive)
- GI50 [18]: 39.4 µM (inactive)
- GI50 [19]: 39 µM (inactive)
- GI50 [20]: 42 µM (inactive)
- GI50 [21]: 32.1 µM (inactive)
- GI50 [22]: 54.7 µM (inactive)
- GI50 [23]: 43.9 µM (inactive)
- GI50 [24]: 28.2 µM (inactive)
- GI50 [25]: 47.2 µM (inactive)
- GI50 [26]: 38.9 µM (inactive)
- GI50 [27]: 37.6 µM (inactive)
- GI50 [28]: 45 µM (inactive)
- GI50 [29]: 40.3 µM (inactive)
- GI50 [30]: 37.1 µM (inactive)
- GI50 [31]: 74.8 µM (inactive)
- GI50 [32]: > 100 µM (inactive)
- GI50 [33]: 44.5 µM (inactive)
- GI50 [34]: 45.5 µM (inactive)
- GI50 [35]: 25.8 µM (inactive)
- GI50 [36]: 26.8 µM (inactive)
- GI50 [37]: 53.3 µM (inactive)
- GI50 [38]: 32.8 µM (inactive)
- GI50 [39]: 53 µM (inactive)
- GI50 [40]: > 100 µM (inactive)
- GI50 [41]: 38 µM (inactive)
- GI50 [42]: 30.3 µM (inactive)
- GI50 [43]: > 100 µM (inactive)
- GI50 [44]: 44.8 µM (inactive)
- GI50 [45]: 46.1 µM (inactive)
- GI50 [46]: > 100 µM (inactive)
- GI50 [47]: 33.5 µM (inactive)
- GI50 [48]: > 100 µM (inactive)
- GI50 [49]: 28.6 µM (inactive)
- GI50 [50]: 11.1 µM (inactive)
- GI50 [51]: 21.8 µM (inactive)
- GI50 [52]: 41.1 µM (inactive)

SMILES: COC(=O)C(C(=O)OC)C1CC(=O)c2c(Br)sc(Br)c21 (centres undefined)
- GI50 [1]: 26.1 µM (inactive)
- GI50 [53]: 31.5 µM (inactive)
- GI50 [54]: 25 µM (inactive)
- GI50 [2]: 13.7 µM (inactive)
- GI50 [3]: 18.4 µM (inactive)
- GI50 [4]: 9.06 µM (inactive)
- GI50 [5]: 4.03 µM (inactive)
- GI50 [6]: 15.2 µM (inactive)
- GI50 [7]: 16.4 µM (inactive)
- GI50 [8]: 15.2 µM (inactive)
- GI50 [55]: 14.3 µM (inactive)
- GI50 [9]: 14.6 µM (inactive)
- GI50 [10]: 9.44 µM
- GI50 [11]: 21.2 µM (inactive)
- GI50 [12]: 17.3 µM (inactive)
- GI50 [13]: 15.4 µM (inactive)
- GI50 [14]: 15.4 µM (inactive)
- GI50 [15]: 20.9 µM (inactive)
- GI50 [16]: 14.1 µM (inactive)
- GI50 [17]: 21 µM (inactive)
- GI50 [18]: 29.2 µM (inactive)
- GI50 [19]: 12.9 µM (inactive)
- GI50 [20]: 18.3 µM (inactive)
- GI50 [21]: 13.6 µM (inactive)
- GI50 [22]: 17.5 µM (inactive)
- GI50 [23]: 23.4 µM (inactive)
- GI50 [24]: 3.33 µM (inactive)
- GI50 [25]: 13.4 µM (inactive)
- GI50 [26]: 22 µM (inactive)
- GI50 [27]: 12.8 µM (inactive)
- GI50 [56]: 18.6 µM (inactive)
- GI50 [29]: 16.8 µM (inactive)
- GI50 [30]: 2.06 µM (inactive)
- GI50 [31]: 13 µM (inactive)
- GI50 [32]: 15.1 µM (inactive)
- GI50 [33]: 16.8 µM (inactive)
- GI50 [34]: 14.2 µM (inactive)
- GI50 [35]: 11.5 µM (inactive)
- GI50 [36]: 26.1 µM (inactive)
- GI50 [37]: 18.5 µM (inactive)
- GI50 [38]: 21.8 µM (inactive)
- GI50 [39]: 18.6 µM (inactive)
- GI50 [40]: 16.6 µM (inactive)
- GI50 [41]: 13.3 µM (inactive)
- GI50 [42]: 15.1 µM (inactive)
- GI50 [43]: 17.9 µM (inactive)
- GI50 [44]: 14.7 µM (inactive)
- GI50 [45]: 20.5 µM (inactive)
- GI50 [46]: 22.9 µM (inactive)
- GI50 [47]: 12.5 µM (inactive)
- GI50 [48]: 11.5 µM (inactive)
- GI50 [49]: 28.6 µM (inactive)
- GI50 [57]: 31.5 µM (inactive)
- GI50 [58]: 16.3 µM (inactive)
- GI50 [50]: 22 µM (inactive)
- GI50 [51]: 13.5 µM (inactive)
- GI50 [52]: 14.5 µM (inactive)
